From PubChem BioAssay (NCI) come the findings set out here.

Several values for one entry are separate records, joined by “and”; a condition that tells them apart may be missing. Identical values can stand only once.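 Tested at 5 concentrations; 48 h exposure; 96-well plates; endpoints linearly interpolated, else capped at highest concentration. Abbreviation: GI50, concentration required for 50% inhibition of growth. TGI: total growth inhibition.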 Some results are limits rather than exact numbers.

Test systems include A498 renal; CCRF-CEM leukemia; HCT-116 colon; HT29 colon; LOX IMVI melanoma; NCI-H522 lung; OVCAR-5 ovarian; SK-MEL-2 melanoma; SK-OV-3 ovarian; UO-31 renal.
Holding throughout (assay): inhibition of tumour cell growth, NCI panel, 48 h

Turning to `COc1ccc(CN2C(=O)C(Cc3cc(OC)c(OC)c(C)c3OC)NC(=O)/C2=C/c2cc(OC)c(OC)c(C)c2OC)cc1` (centres undefined), the TGI with A498 renal is 97.6 µM; with CCRF-CEM leukemia, 71.1 µM; with HCT-116 colon, 60.7 µM; in the test on HT29 colon, 66.2 µM; in the test on LOX IMVI melanoma, more than 100 µM; in the test on NCI-H522 lung it was 50 µM. In addition, the TGI with OVCAR-5 ovarian is more than 100 µM; with SK-MEL-2 melanoma it was 43.2 µM; in the test with SK-OV-3 ovarian, more than 100 µM; in the test on UO-31 renal it was 74 µM.
`Cc1c(C(=O)CC(=O)C(=O)Nc2c(C(C)C)cccc2C(C)C)[n+](=O)c2ccccc2n1[O-]`: the TGI with A498 renal was 49.6 µM; in the test with CCRF-CEM leukemia, 7.84 µM; in the test with HCT-116 colon, 9.1 µM; in the test with HT29 colon, 13.9 µM; in the test on LOX IMVI melanoma, 12.9 µM; in the test on NCI-H522 lung, 5.83 µM. In addition, the TGI in the test on OVCAR-5 ovarian amounted to 35.6 µM; in the test on SK-MEL-2 melanoma, 28.4 µM; in the test with SK-OV-3 ovarian it was 40.1 µM; in the test with UO-31 renal, 31.4 µM.
For the compound `[N-]=[N+]=Nc1ccc(CCN2CCN(c3cccc(C(F)(F)F)c3)CC2)cc1I`, the TGI with A498 renal, in the test on CCRF-CEM leukemia, in the test with HCT-116 colon, in the test on HT29 colon, in the test with LOX IMVI melanoma and with NCI-H522 lung was more than 100 µM each time. Further, the TGI in the test with OVCAR-5 ovarian, with SK-MEL-2 melanoma, in the test on SK-OV-3 ovarian and in the test with UO-31 renal was more than 100 µM each time.
Turning to `CC(N=C(N)N)C(=O)O` (centres undefined), the TGI in the test on A498 renal, with CCRF-CEM leukemia, with HCT-116 colon, in the test with HT29 colon, in the test with LOX IMVI melanoma and in the test on NCI-H522 lung was more than 100 µM in each case. The TGI in the test with OVCAR-5 ovarian, in the test on SK-MEL-2 melanoma, with SK-OV-3 ovarian and in the test on UO-31 renal was more than 100 µM in each case.
Consider `N#CCCN(CCC#N)C(=O)c1cccc(C(=O)N(CCC#N)CCC#N)c1`, for which the TGI is more than 100 µM in the test on A498 renal; more than 100 µM with CCRF-CEM leukemia; 99.4 µM in the test with HCT-116 colon; 35.2 µM with HT29 colon; 30.3 µM with LOX IMVI melanoma; more than 100 µM in the test with NCI-H522 lung. Besides, the TGI in the test on OVCAR-5 ovarian, in the test on SK-MEL-2 melanoma, in the test on SK-OV-3 ovarian and with UO-31 renal was more than 100 µM throughout.
As to `CN(Cc1cnc(N)nc1N)c1ccc(C(=O)O)cc1`, the GI50 in the test on A498 renal was 4.25 µM; in the test with CCRF-CEM leukemia it was more than 100 µM; with HCT-116 colon it was more than 100 µM; in the test on HT29 colon, more than 100 µM; in the test on LOX IMVI melanoma it was more than 100 µM; in the test on NCI-H522 lung, more than 100 µM. The GI50 in the test on OVCAR-5 ovarian, with SK-MEL-2 melanoma, in the test on SK-OV-3 ovarian and in the test with UO-31 renal was more than 100 µM throughout. Also, the TGI with A498 renal, in the test with CCRF-CEM leukemia, with HCT-116 colon, in the test on HT29 colon, with LOX IMVI melanoma and with NCI-H522 lung was more than 100 µM each time. The TGI with OVCAR-5 ovarian, with SK-MEL-2 melanoma, in the test with SK-OV-3 ovarian and in the test on UO-31 renal was more than 100 µM throughout.
`COc1cc(NS(C)(=O)=O)ccc1Nc1c2ccccc2nc2c(C)cccc12`: the GI50 with A498 renal is 0.0806 µM and 0.0968 µM; in the test with CCRF-CEM leukemia, 0.0322 µM and 0.0364 µM; in the test with HCT-116 colon, 0.133 µM and 0.16 µM; with HT29 colon, 0.443 µM and 0.372 µM; in the test on LOX IMVI melanoma, 0.0512 µM and 0.0544 µM; in the test on NCI-H522 lung, 0.662 µM and 0.219 µM. Besides, the GI50 in the test on OVCAR-5 ovarian is 0.571 µM and 0.572 µM; in the test with SK-MEL-2 melanoma, 6.54 µM and 1.72 µM; in the test on SK-OV-3 ovarian, 0.302 µM and 0.332 µM; in the test on UO-31 renal, 0.215 µM and 0.124 µM. The TGI in the test on A498 renal is 1.03 µM and 1.6 µM; with HCT-116 colon, 2.13 µM and 2.37 µM; in the test with HT29 colon, 8.98 µM and 2.09 µM; in the test on LOX IMVI melanoma, 1.35 µM and 1.51 µM; with NCI-H522 lung, 12.2 µM and 2.98 µM; in the test with OVCAR-5 ovarian, 13.9 µM and 11.9 µM. For the same compound, the TGI with SK-MEL-2 melanoma is 20.8 µM and 10.4 µM; in the test on SK-OV-3 ovarian it was 7.8 µM and 11 µM; in the test with UO-31 renal it was 5.28 µM and 2.81 µM.
As to `NC(N)=NS(=O)(=O)c1ccc(Nc2c3ccccc3nc3c(C(=O)N4CCN(CCO)CC4)cccc23)cc1`, the TGI in the test on A498 renal, in the test on CCRF-CEM leukemia, with HCT-116 colon, in the test with HT29 colon, with LOX IMVI melanoma and with NCI-H522 lung was more than 100 µM in each case. For the same compound, the TGI in the test on OVCAR-5 ovarian, in the test with SK-MEL-2 melanoma, in the test with SK-OV-3 ovarian and with UO-31 renal was more than 100 µM each time.
For `COc1cccc(C(=O)Nc2ccc(CN3CCc4nc5cc(OC)c(OC)cc5cc43)cc2)c1`, the GI50 is 1.67 µM in the test with A498 renal; 3.35 µM in the test with CCRF-CEM leukemia; 3.12 µM in the test with HCT-116 colon; 2.59 µM in the test with HT29 colon; 2.37 µM in the test with LOX IMVI melanoma; 3.94 µM in the test with NCI-H522 lung. Also, the GI50 with OVCAR-5 ovarian was 12.9 µM; in the test on SK-MEL-2 melanoma, 8.8 µM; in the test with SK-OV-3 ovarian, 18.5 µM; with UO-31 renal, 3.36 µM. For the same compound, the TGI worked out at 9.07 µM in the test on A498 renal; 36.5 µM with CCRF-CEM leukemia; 12.1 µM in the test on HCT-116 colon; 7.05 µM in the test with HT29 colon; 6.5 µM in the test with LOX IMVI melanoma; 18.3 µM with NCI-H522 lung. For the same compound, the TGI with OVCAR-5 ovarian is more than 100 µM; in the test with SK-MEL-2 melanoma, 22.4 µM; with SK-OV-3 ovarian, more than 100 µM; in the test with UO-31 renal, 60.1 µM.
With `CC1=CC[C@@H]2C(C)(C)C(=O)CC[C@@]2(C)[C@@H]1COc1ccc2ccc(=O)oc2c1`, the GI50 with A498 renal was 6.56 µM; in the test on CCRF-CEM leukemia, 5.48 µM; with HCT-116 colon it was 16.4 µM; in the test on HT29 colon, 23.8 µM; in the test with LOX IMVI melanoma, 17.6 µM; with NCI-H522 lung, 8.97 µM. The GI50 in the test with OVCAR-5 ovarian was 25.9 µM; in the test on SK-MEL-2 melanoma, 11.5 µM; in the test on SK-OV-3 ovarian, 31.9 µM; with UO-31 renal, 8.15 µM. For the same compound, the TGI is more than 100 µM in the test with A498 renal; 70.9 µM in the test on CCRF-CEM leukemia; more than 100 µM in the test with HCT-116 colon; more than 100 µM with HT29 colon; 48.6 µM in the test on LOX IMVI melanoma; 50.9 µM with NCI-H522 lung. Moreover, the TGI in the test with OVCAR-5 ovarian is more than 100 µM; in the test with SK-MEL-2 melanoma, 42.3 µM; with SK-OV-3 ovarian, more than 100 µM; with UO-31 renal, 34.9 µM.
